Like-named read-outs stand apart in the source and are kept apart here.
Columns and labels:
[1] = test system: peripheral blood mononuclear cells (PBMC); test: Stimulation of IFN-α secretion from PBMC; assay type: cell-based, human; settings: 24 hours, lowest concentration giving cytokine level at least 3 times the minimum detection limit
Method: The ability of the compound of the present disclosure to stimulate the secretion of IFN-α from PBMC was determined by the following experimental method:
The compound was diluted with pure DMSO to a maximum concentration of 5 mM, and a total of 9 points were obtained by a 4-fold gradient dilution. 4 μL of the compound was then added to 196 μL of RMPI 1640 medium containing 10% FBS and mixed well. 50 μL of the mixture was taken from each well and added to a new 96-well cell culture plate.
All reagents were equilibrated to room temperature. 60 mL of blood and PBS+2% FBS were added to a 250 mL culture flask, gently pipetted, mixed well and diluted. 15 mL of lymphocyte separation solution Ficoll-Paque PREMIUM and then 30 mL of diluted blood were added to a 50 mL PBMC centrifuge tube SepMate™-50. The mixture was centrifuged at 1200 g for 10 minutes at room temperature. The supernatant was taken and then centrifuged at 300 g for 8 minutes. The cells were re-suspended in the RMPI 1640 medium containing 10% FBS and counted, and the number of PBMCs was adjusted to 3.33×10^6 cells/mL. 150 μL of the cell solution was added to the plate added with the compound, and incubated in an incubator at 37° C., 5.0% CO2 for 24 hours.
The cell culture plate was placed in a centrifuge, and centrifuged at 1200 rpm for 10 minutes at room temperature. […]
The plate was read with PHERAStar in the HTRF mode. […]

[2] = biological target: T1, human TLR8 (Homo sapiens, UniProt Q9NR97); test: Agonistic effect on human TLR8 (HEK-Blue hTLR8 cells); assay type: cell-based
T1 construct: host or cells: HEK-Blue hTLR8 (HEK293-derived) stably transfected cells
T1 sequence (Q9NR97 27-1041): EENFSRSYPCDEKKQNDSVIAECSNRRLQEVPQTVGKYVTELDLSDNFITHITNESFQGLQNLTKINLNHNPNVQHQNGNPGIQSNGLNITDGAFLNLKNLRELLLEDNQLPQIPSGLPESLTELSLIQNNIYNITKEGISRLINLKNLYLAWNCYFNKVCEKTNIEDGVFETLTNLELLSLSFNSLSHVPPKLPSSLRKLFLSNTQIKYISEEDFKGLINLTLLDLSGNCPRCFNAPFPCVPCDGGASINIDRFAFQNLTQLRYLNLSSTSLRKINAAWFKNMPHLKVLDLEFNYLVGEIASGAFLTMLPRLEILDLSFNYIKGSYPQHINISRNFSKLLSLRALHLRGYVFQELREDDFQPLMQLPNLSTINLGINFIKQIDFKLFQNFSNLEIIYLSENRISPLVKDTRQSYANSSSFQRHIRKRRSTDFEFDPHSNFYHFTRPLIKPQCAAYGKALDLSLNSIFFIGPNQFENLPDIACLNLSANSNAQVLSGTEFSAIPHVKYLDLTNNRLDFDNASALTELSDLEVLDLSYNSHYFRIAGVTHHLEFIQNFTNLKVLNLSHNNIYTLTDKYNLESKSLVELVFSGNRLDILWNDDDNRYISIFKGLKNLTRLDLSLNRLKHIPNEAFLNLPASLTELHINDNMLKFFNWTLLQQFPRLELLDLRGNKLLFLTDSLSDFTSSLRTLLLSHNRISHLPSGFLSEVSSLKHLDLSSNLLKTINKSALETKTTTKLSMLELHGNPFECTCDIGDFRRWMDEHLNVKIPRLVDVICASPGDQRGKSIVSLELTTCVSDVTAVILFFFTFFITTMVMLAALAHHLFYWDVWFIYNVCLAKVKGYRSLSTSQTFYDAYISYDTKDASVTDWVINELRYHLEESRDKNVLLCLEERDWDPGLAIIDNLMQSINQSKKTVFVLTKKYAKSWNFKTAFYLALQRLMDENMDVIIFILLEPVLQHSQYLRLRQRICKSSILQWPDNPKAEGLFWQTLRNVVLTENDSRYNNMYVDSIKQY
Method: The agonistic effect of the compound represented by formula (I) on the hTLR8 protein expressed in HEK-Blue™ hTLR8 stably transfected cells was determined by the following experimental method:
A bag of HEK-Blue detection dry powder was dissolved in 50 mL of water free of endotoxin, and the solution was then placed in an incubator at 37° C. for 10 minutes followed by sterile filtration to prepare a HEK-Blue detection medium. The compound was firstly formulated into a 20 mM stock solution, then diluted with pure DMSO to a maximum concentration of 6×10^6 nM, and a total of 10 points were obtained by a 3-fold gradient dilution. The compound was firstly diluted 20-fold with the medium, then 20 μL of the diluted compound was added to each well.
The supernatant was removed from the HEK-Blue™ hTLR8 cells, to which 2-5 mL of pre-warmed PBS was then added. The cells were placed in an incubator for 1-2 minutes, gently pipetted, and counted by trypan blue staining. The cells were re-suspended in the HEK-Blue detection medium and the concentration was adjusted to 2.2×10^5 cells/mL. 180 μL of cells was added to the above 96-well plate added with 20 μL of the compound, and incubated at 37° C. for 6-16 hours.
The plate was read with a microplate reader at a wavelength of 620 nm. The corresponding OD values were obtained, and the EC50 value of the compound was calculated by Graphpad Prism.

[3] = Solubility in PBS 7.4 and FaSSIF solutions; assay type: physicochemical; settings: thermodynamic from solid
Text: The amorphous samples of the compound represented by formula (I) and the crystal form I samples of the dihydrochloride salt of the compound represented by formula (I) obtained in the present disclosure were further evaluated for solubility in PBS 7.4 and FaSSIF solutions.

**Q.** Which “MEC (minimal effective concentration), IFN-α secretion from PBMC” value [1] does the source give for `CCCCOc1nc(N)c2cnn(Cc3ccc(CN4CCCC4)cc3)c2n1` [compound represented by formula (I), 6-Butoxy-1-(4-(pyrrolidin-1-ylmethyl)benzyl)-1H-pyrazolo[3,4-d]pyrimidin-4-amine] here?
**A.** The value was 6 nM.

**Q.** And the “agonistic effect on human TLR8 (in words)” value ([2]; HEK-Blue hTLR8 cells)?
**A.** Its value is “no agonistic effect”.

**Q.** What about the “selectivity for TLR7 over TLR8 (in words)” value ([2]; from TLR7 and TLR8 results) of the same compound?
**A.** Its value is “high selectivity”.

**Q.** And the solubility ([3]; FaSSIF solution, fassif, read-out: FasSIF Solubility)?
**A.** Its solubility is 1090 µg/mL.

**Q.** What about the solubility ([3]; PBS 7.4, pH 7.4, aqueous buffer, read-out: PBS 7.4 Solubility) of the same compound?
**A.** Its solubility is 30 µg/mL.

From patent US20210188856A1, “CRYSTAL FORM OF HYDROCHLORIDE OF PYRAZOLOHETEROARYL DERIVATIVE AND PREPARATION METHOD” (JIANGSU HENGRUI MEDICINE CO., LTD., priority 2018, published 2021)
